Assay results taken from patent US8716292B2, “Riminophenazines with 2-(heteroaryl)amino substituents and their anti-microbial activity” (priority 2010, dated 2014).
Converted amounts (≈) assume the structure as drawn.

tested on: Mycobacterium tuberculosis H37Rv strains; assay: In vitro assay for antimicrobial susceptibility (microplate Alamar blue MIC); assay type: cell-based; settings: Mycobacterium tuberculosis, H37RV, 7H9, Alamar blue, inhibition ≧90%; read-out: MIC (μg/mL) against H37Rv

| SMILES | MIC [µg/mL] |
| --- | --- |
| Fc1ccc(-n2c3c/c(=N\C4CCOCC4)c(Nc4cnccn4)cc-3nc3ccccc32)cc1 [TBI-1085, 5-(4-Fluorophenyl)-3-(4-tetrahydropyranyl)imino-2-(pyrazin-2-yl)amino-3,5-dihydrophenazine] | 0.038 (≈ 0.0815 µM) |
| CC(C)/N=c1\cc2n(-c3ccc(Cl)cc3)c3ccccc3nc-2cc1Nc1ncccn1 [TBI-1051, 5-(4-chlorophenyl)-3-(1-methylethyl)imino-2-(pyrimidin-2-yl)amino-3,5-dihydrophenazine] | 0.015 (≈ 0.034 µM) |
| CC(C)/N=c1\cc2n(-c3ccc(F)c(F)c3)c3ccccc3nc-2cc1Nc1ncccc1C#N [TBI-1438, 5-(3,4-Difluorophenyl)-3-(1-methylethyl)imino-2-(3-cyano-2-pyridyl)amino-3,5-dihydrophenazine] | 0.053 (≈ 0.114 µM) |

same assay, conditions: Mycobacterium tuberculosis, H37RV, in vitro, Mycobacterium tuberculosis H37Rv strains; read-out: MIC (μg/mL) against H37Rv

| SMILES | MIC [µg/mL] |
| --- | --- |
| Clc1ccc(-n2c3c/c(=N\C4CCC4)c(Nc4cncc(Br)c4)cc-3nc3ccccc32)cc1 [TBI-883, 5-(4-Chlorophenyl)-3-cyclobutylimino-2-(5-bromo-3-pyridyl)amino-3,5-dihydrophenazine] | 0.03 (≈ 0.0565 µM) |
| Brc1ccc(-n2c3c/c(=N\C4CCC4)c(Nc4cccnc4)cc-3nc3ccccc32)cc1 [TBI-098, 5-(4-Bromophenyl)-3-cyclobutylimino-2-(3-pyridyl)amino-3,5-dihydrophenazine] | 0.028 (≈ 0.0564 µM) |
| Cc1ccc(-n2c3c/c(=N\CCN4CCOCC4)c(Nc4cccnc4C)cc-3nc3ccccc32)cc1 [TBI-324, 5-(4-Methylphenyl)-3-(2-morpholinoethyl)imino-2-(2-methyl-3-pyridyl)amino-3,5-dihydrophenazine] | 0.12 (≈ 0.238 µM) |
| Cc1ccc(-n2c3c/c(=N\CCN4CCOCC4)c(Nc4ccc(C)nc4)cc-3nc3ccccc32)cc1 [TBI-318, 5-(4-Methylphenyl)-3-(2-morpholinoethyl)imino-2-(6-methyl-3-pyridyl)amino-3,5-dihydrophenazine] | 0.087 (≈ 0.172 µM) |
| Cc1ccc(Nc2cc3nc4ccccc4n(-c4ccccc4)c-3c/c2=N\C2CC2)cn1 [TBI-095] | 0.048 (≈ 0.115 µM) |
| Cc1ccc(Nc2cc3nc4ccccc4n(-c4cccc(Cl)c4)c-3c/c2=N\C2CCOCC2)cn1 [TBI-80A, 5-(3-Chlorophenyl)-3-(4-tetrahydropyranyl)imino-2-(6-methyl-3-pyridyl)amino-3,5-dihydrophenazine] | 0.125 (≈ 0.252 µM) |
| COc1ncccc1Nc1cc2nc3ccc(F)cc3n(-c3ccc(Cl)cc3)c-2c/c1=N\C1CCCCC1 [TBI-927, 7-Fluoro-5-(4-chlorophenyl)-3-cyclohexylimino-2-(2-methoxy-3-pyridyl)amino-3,5-dihydrophenazine] | 0.04 (≈ 0.0758 µM) |
| COc1ncccc1Nc1cc2nc3ccc(F)cc3n(-c3ccc(Cl)c(Cl)c3)c-2c/c1=N\C1CCC1 [TBI-886, 7-Fluoro-5-(3,4-dichlorophenyl)-3-cyclobutylimino-2-(2-methoxy-3-pyridyl)amino-3,5-dihydrophenazine] | 0.06 (≈ 0.112 µM) |
| COc1ncccc1Nc1cc2nc3ccccc3n(-c3ccccc3OC(F)(F)F)c-2c/c1=N\C1CCC(OC)CC1 (centres unmarked) [TBI-1044, 5-(2-Trifluoromethoxyphenyl)-3-(4-methoxycyclohexyl)imino-2-(2-methoxy-3-pyridyl)amino-3,5-dihydrophenazine] | 0.25 (≈ 0.424 µM) |
| CC(=O)Nc1ccc(Nc2cc3nc4ccccc4n(-c4ccc(F)cc4)c-3c/c2=N\[C@H]2CC[C@H](O)CC2)cn1 [TBI-917, 5-(4-Fluorophenyl)-3-(1′,4′-trans-4-hydroxycyclohexyl)imino-2-(6-acetamino-3-pyridyl)amino-3,5-dihydrophenazine] | 1 (≈ 1.86 µM) |
| Cc1ccc(Nc2cc3nc4ccccc4n(-c4ccc(F)cc4)c-3c/c2=N\C2CCC2)cn1 [TBI-1017] | 0.056 (≈ 0.125 µM) |
| Cc1ccc(Nc2cc3nc4ccccc4n(-c4ccc(F)cc4)c-3c/c2=N\C2CCOCC2)cn1 [TBI-900, 5-(4-Fluorophenyl)-3-(4-tetrahydropyranyl)imino-2-(6-methyl-3-pyridyl)amino-3,5-dihydrophenazine] | 0.125 (≈ 0.261 µM) |
| Cc1ncccc1Nc1cc2nc3ccccc3n(-c3ccccc3)c-2c/c1=N\C(C)C [TBI-073, 5-Phenyl-3-(1-methylethyl)imino-2-(2-methyl-3-pyridyl)amino-3,5-dihydrophenazine] | 0.058 (≈ 0.138 µM) |
| COc1ccc(Nc2cc3nc4ccccc4n(-c4ccc(F)cc4)c-3c/c2=N\C2CCC2)cn1 [TBI-934, 5-(4-Fluorophenyl)-3-cyclobutylimino-2-(6-methoxy-3-pyridyl)amino-3,5-dihydrophenazine] | 0.3 (≈ 0.644 µM) |
| c1ccc(-n2c3c/c(=N\CCN4CCOCC4)c(Nc4cccnc4)cc-3nc3ccccc32)cc1 [TBI-056, 5-Phenyl-3-(2-morpholinoethyl)imino-2-(3-pyridyl)amino-3,5-dihydrophenazine] | 0.25 (≈ 0.525 µM) |
| COCC(C/N=c1\cc2n(-c3ccc(C(F)(F)F)cc3)c3ccccc3nc-2cc1Nc1cccnc1OC)OC (centres unmarked) [TBI-744] | 0.059 (≈ 0.105 µM) |
| COc1ncccc1Nc1cc2nc3ccccc3n(-c3ccc(C(F)(F)F)cc3)c-2c/c1=N\C1CCC(OC)CC1 (centres unmarked) [TBI-700, 5-(4-Trifluoromethylphenyl)-3-(4-methoxycyclohexyl)imino-2-(2-methoxy-3-pyridyl)amino-3,5-dihydrophenazine] | 0.016 (≈ 0.0279 µM) |

| SMILES | MIC [µg/mL] |
| --- | --- |
| COc1ncccc1Nc1cc2nc3ccc(F)cc3n(-c3ccc(Cl)c(Cl)c3)c-2c/c1=N\C1CC1 [TBI-885, 7-Fluoro-5-(3,4-dichlorophenyl)-3-cyclopropylimino-2-(2-methoxy-3-pyridyl)amino-3,5-dihydrophenazine] | 0.06 (≈ 0.115 µM) |
| Clc1ccc(-n2c3c/c(=N\C4CC4)c(Nc4cncc(Br)c4)cc-3nc3ccccc32)cc1 [TBI-882, 5-(4-Chlorophenyl)-3-cyclopropylimino-2-(5-bromo-3-pyridyl)amino-3,5-dihydrophenazine] | 0.015 (≈ 0.029 µM) |
| CC(C)/N=c1\cc2n(-c3cccc(C(F)(F)F)c3)c3ccccc3nc-2cc1Nc1cccnc1 [TBI-730, 5-(3-Trifluoromethylphenyl)-3-(1-methylethyl)imino-2-(3-pyridyl)amino-3,5-dihydrophenazine] | 0.205 (≈ 0.433 µM) |
| COC1CCC(/N=c2\cc3n(-c4ccc(C(F)(F)F)cc4)c4ccccc4nc-3cc2Nc2ccc(NC(C)=O)nc2)CC1 (centres unmarked) [TBI-715, 5-(4-Trifluoromethylphenyl)-3-(4-methoxycyclohexyl)imino-2-(6-acetamino-3-pyridyl)amino-3,5-dihydrophenazine] | 0.06 (≈ 0.0999 µM) |
| Cc1ccc(-n2c3c/c(=N\C4CCOCC4)c(Nc4ccc(C)nc4)cc-3nc3ccccc32)cc1 [TBI-317, 5-(4-Methylphenyl)-3-(4-tetrahydropyranyl)imino-2-(6-methyl-3-pyridyl)amino-3,5-dihydrophenazine] | 0.055 (≈ 0.116 µM) |
| COC1CCC(/N=c2\cc3n(-c4ccc(F)c(F)c4)c4ccccc4nc-3cc2Nc2cccnc2)CC1 (centres unmarked) [TBI-1430, 5-(3,4-Difluorophenyl)-3-(4-methoxycyclohexyl)imino-2-(3-pyridyl)amino-3,5-dihydrophenazine] | 0.059 (≈ 0.115 µM) |
| COc1ncccc1Nc1cc2nc3ccccc3n(-c3ccc(C)cc3)c-2c/c1=N\C1CCC(O)CC1 (centres unmarked) [TBI-332, 5-(4-Methylphenyl)-3-(4-hydroxycyclohexyl)imino-2-(2-methoxy-3-pyridyl)amino-3,5-dihydrophenazine] | 0.294 (≈ 0.581 µM) |
| CC(=O)Nc1ccc(Nc2cc3nc4ccccc4n(-c4ccc(F)cc4)c-3c/c2=N\C(C)C)cn1 [TBI-910, 5-(4-Fluorophenyl)-3-(1-methylethyl)imino-2-(6-acetamino-3-pyridyl)amino-3,5-dihydrophenazine] | 0.147 (≈ 0.306 µM) |
| COc1ncccc1Nc1cc2nc3cc(F)ccc3n(-c3ccc(Cl)cc3)c-2c/c1=N\C(C)C [TBI-929, 8-Fluoro-5-(4-chlorophenyl)-3-(1-methylethyl)imino-2-(2-methoxy-3-pyridyl)amino-3,5-dihydrophenazine] | 0.125 (≈ 0.256 µM) |
| Cc1ccc(Nc2cc3nc4ccccc4n(-c4ccc(Cl)c(Cl)c4)c-3c/c2=N\C2CCOCC2)cn1 [TBI-945, 5-(3,4-Dichlorophenyl)-3-(4-tetrahydropyranyl)imino-2-(6-methyl-3-pyridyl)amino-3,5-dihydrophenazine] | 0.25 (≈ 0.471 µM) |
| COC1CCC(/N=c2\cc3n(-c4ccc(Cl)cc4)c4ccccc4nc-3cc2Nc2cccnc2C)CC1 (centres unmarked) [TBI-453, 5-(4-Chlorophenyl)-3-(4-methoxycyclohexyl)imino-2-(2-methyl-3-pyridyl)amino-3,5-dihydrophenazine] | 0.011 (≈ 0.021 µM) |
| COc1ncccc1Nc1cc2nc3ccccc3n(-c3ccc(Cl)cc3Cl)c-2c/c1=N\C1CCC(OC)CC1 (centres unmarked) [TBI-371, 5-(2,4-Dichlorophenyl)-3-(4-methoxycyclohexyl)imino-2-(2-methoxy-3-pyridyl)amino-3,5-dihydrophenazine] | 0.044 (≈ 0.0766 µM) |
| Cc1ccc(Nc2cc3nc4ccccc4n(-c4ccc(C(F)(F)F)cc4)c-3c/c2=N\C2CCCCC2)cn1 [TBI-717, 5-(4-Trifluoromethylphenyl)-3-cyclohexylimino-2-(6-methyl-3-pyridyl)amino-3,5-dihydrophenazine] | 0.015 (≈ 0.0284 µM) |
| COC1CCC(/N=c2\cc3n(-c4ccc(Cl)cc4)c4cc(F)ccc4nc-3cc2Nc2ccc(C)nc2)CC1 (centres unmarked) [TBI-925] | 0.078 (≈ 0.144 µM) |
| FC(F)(F)Oc1cccc(-n2c3c/c(=N\C4CCCCC4)c(Nc4cccnc4)cc-3nc3ccccc32)c1 [TBI-1022, 5-(3-Trifluoromethoxyphenyl)-3-cyclohexylimino-2-(3-pyridyl)amino-3,5-dihydrophenazine] | 0.074 (≈ 0.14 µM) |
| COc1ncccc1Nc1cc2nc3cc(C#N)ccc3n(-c3ccc(F)cc3)c-2c/c1=N\C1CCC(OC)CC1 (centres unmarked) [TBI-1065, 8-Cyano-5-(4-fluorophenyl)-3-(4-methyoxycyclohexyl)imino-2-(2-methoxy-3-pyridyl)amino-3,5-dihydrophenazine] | > 16 |
| COC1CCC(N=c2cc3n(-c4ccc(C(F)(F)F)cc4)c4ccccc4nc-3cc2Nc2cccnc2C)CC1 (centres unmarked) [TBI-706, 5-(4-Trifluoromethylphenyl)-3-(4-methoxycyclohexyl)imino-2-(2-methyl-3-pyridyl)amino-3,5-dihydrophenazine] | 0.011 (≈ 0.0197 µM) |

same assay, conditions: in vitro, Mycobacterium tuberculosis H37Rv strains

| SMILES | MIC (μg/mL) against H37Rv [µg/mL] |
| --- | --- |
| COc1ncccc1Nc1cc2nc3ccc(F)cc3n(-c3ccc(Cl)cc3)c-2c/c1=N\C(C)C [TBI-741, 5-(4-Chlorophenyl)-3-(1-methylethyl)imino-2-(2-methoxy-3-pyridyl)amino-7-fluoro-3,5-dihydrophenazine] | 0.035 (≈ 0.0717 µM) |
